{"source": "patent US20090233307A1", "about": "“METHODS FOR DETECTION OF SINGLE STRAND BREAKS IN DNA” (The University of North Carolina at Chapel Hill, priority 2008, published 2009)", "key": {"[1]": {"tested_on": "Chinese hamster ovary (CHO) AA8 cells", "assay": "OTX-coupled comet assay", "format": "cell-based", "conditions": "10 minute exposure to 1 mM MMS, CHO AA8", "description": "Chinese hamster ovary (CHO) AA8 cells were seeded at a concentration 0.5×10^6 cell/mL into several 10 cm culture dishes with 10 mL of MEM-α media (Gibco) supplemented with 10% fetal bovine serum (heat inactivated; Sigma), 100 μg/mL penicillin, and 100 μg/mL streptomycin. These were allowed to grow for 48 hours at 37° C. and 5% CO2. Culture dishes were about 80-85% confluent at harvest.\nBefore cells were harvested for use in the comet assay, the lysis solution (2.5 M NaCl, 100 mM Na2-EDTA, 10 mM Trizma, pH 10) was completed with the addition of 10% (v/v) DMSO and 1% (v/v) Triton X-100, mixed thoroughly, and refrigerated at 4° C. A 0.5% solution of low melting point agarose (LMPA) was also prepared and allowed to equilibrate to 37° C. in a water bath. Partially frosted microscope slides, pre-coated several days before with 50 μL of 1% normal melting point agarose (NMPA), were labeled and set aside.\nPrior to cell harvest, the media was removed and each dish was washed with 10 mL of 1×PBS. An additional 2 mL of 1×PBS was added to each dish and the cells were harvested using a rubber policeman. Harvested cells were combined into 15 mL centrifuged tubes and gently mixed by pipetting to obtain a homogenous cell sample. The cell count was obtained using a hemacytometer. The volume of cell sample needed to obtain 11,000 cells per slide to be prepared was added to a new 15 mL centrifuge tube and centrifuged for 5 minutes at 1,100 RPM. The supernatant was removed and the cell pellet resuspended in 1×PBS at a volume equal to 10 μL per slide to be prepared (e.g. 5 slides×10 μL per slide=50 μL 1×PBS total).\nFor each slide to be prepared, 10 μL of the cell sample was added to a 1.5 mL centrifuge tube. The cell layer of the slide was created by first gently mixing 100 μL of the 0.5% LMPA with the 10 μL of cell sample in the tube. This mixture was then added to a pre-coated slide and a coverslip placed onto the slide to create a thin layer of the cell mixture. Slides with cell layers were then refrigerated at 4° C. for 15 minutes to solidify the gel. After this incubation, the initial coverslips were removed and an additional 150 μL of 0.5% LMPA was added to each slide. A fresh coverslip was placed onto each slide to create a thin top layer and the slides were refrigerated for another 15 minutes. After removing the coverslip, completed slides that were receiving MMS treatment were placed in a slide chamber containing warmed MEM-α media with 1 mM MMS for 10 minutes. The slide chamber was kept warm by placing it within an incubator held at 37° C. After the 10 minutes, the slides were washed with 1×PBS for 5 minutes at room temperature and then transferred to slide chambers containing the chilled lysis solution. […]"}, "isolated, genomic DNA": {"tested_on": "isolated, genomic DNA", "assay": "SSB formation at N7-methylguanine adducts, isolated DNA, NaOH or piperidine denaturation, AGE", "conditions": "DNA + 1 mM MMS + 30 mM OTX 1 hour", "description": "To visualize the conversion of MMS induced N7-methylguanine (N7-meG) adducts into SSBs, the AGE assay described above was modified with a piperidine treatment (Mattes et. al., Biochem. Biophys. Acta 868:71-76 (1986)). Equal amounts of DNA (25 μg) were incubated for 1 hour at 37° C. in the presence of 30 mM OTX (Aldrich) and 1 mM MMS or PBS in 50 mM HEPES buffer (pH 7). Treated DNA was washed and collected using microcon YM-3 centrifugal filter devices (Amicon Bioseparations). The treated DNA was then incubated with alkaline buffer (pH≧12.8) that contained either 100 mM NaOH or 1 M piperidine for 20 minutes at 37° C. This DNA was then washed and collected by centrifugal filter devices, and the concentrations determined by UV. DNA (3-5 μg) from each sample received loading dye and was loaded onto a 0.7% agarose gel prepared as previously described. Electrophoresis, neutralization, staining, and image analysis were performed as described above.\nALSs such as N7-methylguanine (N7-meG), the predominate lesion formed by monofunctional alkylating agents, are generated during MMS exposure (Wyatt et. al., Chem. Res. Toxicol. 19: 1580-1594 (2006)). In the absence of OTX, ALSs other than AP sites may contribute to SSBs detected during AGE. […]"}}, "data": [{"smiles": "COS(C)(=O)=O", "note": "[MMS, methyl methanesulfonate]", "values": [{"measurement": "tail moment compared to the untreated control (no MMS)", "setting": "[1]", "result": "significant difference in tail moment"}, {"measurement": "amount of SSBs after NaOH induced DNA denaturation, MMS treated vs control DNA", "setting": "isolated, genomic DNA; 100 mM NaOH 20 minutes", "result": "no difference in the amount of SSBs"}, {"measurement": "DNA migration after piperidine treatment", "setting": "isolated, genomic DNA; 1 M piperidine 20 minutes, vs PBS control", "result": "notable increase in DNA migration"}]}]}
